Reference: US20100210534A1, “USE OF A PEPTIDE AS A THERAPEUTIC AGENT” (priority 2007, published 2010)
No end group written: not given here.

Columns and labels:
[1] = tested on: HIV-1IIIB; test: HIV-1 antiviral assay in CEM-SS cells (MTS readout of virus-induced cell killing); format: cell-based
[2] = tested on: HCMV strain AD169; test: HCMV plaque formation assay in MRC-5 cells; conditions: for inhibition of HCMV plaque formation as compared to the virus control: 10 micrograms per ml, 7-10 days
[3] = tested on: hepatitis B virus (HBV) ayw strain; test: HBV assay in HepG2-2.2.15 cells (secreted HBV DNA by TaqMan PCR); format: cell-based; conditions: 10 micrograms per ml, six days, HBV DNA in supernatant
[4] = tested on: Primary Human endothelial cells (HUVEC); test: Endothelial cell migration assay; conditions: 10 micrograms per ml, 22 hours, combination peptide 1: peptide 2 0.95 mole: 1.05 mole
Experimental: Primary Human endothelial cells (HUVEC) were seeded in insert chambers with 3 micrometer pore size of multi-transwell plate for 6 hours at 37° C. in Endothelial Cell Basal Medium (EBM) supplemented with 0.1% bovine serum albumin. Thereafter, designated concentration of testing peptides—10 micrograms per ml—was added in duplicate wells. The endothelia were allowed to migrate for 22 hours at 37° C., then, migrated cells were fixed and stained with Hoechst 33342 dye. Images of 3 fields per insert were taken and the number of migrated cells per field were quantified using the ImageProPlus software. Data were analyzed for the average number of the migrated cells and standard deviation of six data points for each treatment condition. […] Statistic p values were computed using the Student's t-test.

[5] = tested on: HUVEC; test: Endothelial tube formation assay; conditions: 10 micrograms per ml, 20 hours, combination peptide 1: peptide 2 0.95 mole: 1.05 mole
Experimental: The endothelial tube formation assay is based on the ability of endothelial cells to form three-dimensional capillary-like tubular structures when cultured on a gel of basement membrane extract. […] Pre-labeled HUVEC with Calcein AM were seeded in a 96-well culture plate coated with extracellular metrix (Chemicon international Cat. ECM625) and treated with test peptides—10 micrograms per ml—in full growth medium. Positive control was vehicle only. The endothelial cells were allowed to form tubes foe 20 hours and were then examined under an inverted fluorescent microscope. Duplicate wells for each treatment were photographed and quantitatevily analyzed for an average tubule length using image analysis software ImageProPlus. Raw data were expressed as average tubule lenghs in pixels±standard deviation. Statistic p values were computed using the Student's t-test.

[6] = tested on: spleen cells of Ovalbumin-immunized Balb/c mice; test: Th1/Th2 cytokine profiling assay (Ovalbumin-restimulated spleen cells, CBA kit); conditions: 10 micrograms per ml; Ovalbumin restimulation, 72 hours
Text: The Balb/c mice (originated in 1923, it is a popular strain and is used in many different research disciplines. Also classified as an inbred from the production of 20 or more successive brother-sister matings, the Balb/c mouse is albino and small in size) were immunized on Days 1, 15, and 29 with Ovalbumin (Ovalbumin is the main protein found in egg white, commonly used to stimulate an immunological reaction in test animals) in PBS (5 micrograms/injection). On day 50, spleens of the mice were harvested (3 weeks after last boost with Ovalbumin). […] Thereafter, additional Ovalbumin was added to the cells at 10 micrograms/ml for in vitro restimulation of the cells. 72 hours later, cell supernatants were harvested and assayed using the Becton Dickinson Mouse Th1/Th2 Cytokine CBA Kit.

Molecule | antiviral activity of positive control compounds (HIV-1) [1] | antiviral activity of positive control compound (HCMV) ([2]; positive control, HCMV AD169) | inhibition of HBV replication as compared to the virus control infection [3] [%] | inhibition of the migration of human endothelial cells [4] | inhibition of the tube formation endothelial cells [5] | inhibition of HCMV plaque formation as compared to the virus control [2] | IFNγ spleen cells; TH1 response (% of control) [6] | IL-2 spleen cells (% of control) [6] | IL-4 spleen cells; TH2 response (% of control) [6] | IL-5 spleen cells; TH2 response (% of control) [6] | TNF-a spleen cells; TH1 response (% of control) [6]
Cc1cn([C@H]2C[C@H](N=[N+]=[N-])[C@@H](CO)O2)c(=O)[nH]c1=O [AZT] | expected levels of antiviral activity | – | – | – | – | – | – | – | – | – | –
CC(C)(C)NC(=O)[C@@H]1CN(Cc2cccnc2)CCN1C[C@@H](O)C[C@@H](Cc1ccccc1)C(=O)N[C@H]1c2ccccc2C[C@H]1O [indinavir] | expected levels of antiviral activity | – | – | – | – | – | – | – | – | – | –
Nc1nc(O)c2ncn(COC(CO)CO)c2n1 [Ganciclovir, reference compound] | – | expected levels of antiviral activity | – | – | – | – | – | – | – | – | –
Arg-Val-Tyr-Ile-His-Pro-Phe-OH (RVYIHPF-OH) [Peptide 2] | – | – | 44.1 | did not inhibit | 3% | did not inhibit | 126.8 % of control | 119.1 % of control | 117.2 % of control | 69.6 % of control | 106.3 % of control
Ala-Ala-Val-Ala-Leu-Leu-Pro-Ala-Val-Leu-Leu-Ala-Leu-Leu-Ala-Pro-Val-Gln-Arg-Lys-Arg-Gln-Lys-Leu-Met-Pro-OH (AAVALLPAVLLALLAPVQRKRQKLMP-OH) [Peptide 1] | – | – | 40.7 | did not inhibit | did not inhibit | did not inhibit | 63.7 % of control | 153.6 % of control | 118.2 % of control | 74.6 % of control | 108.5 % of control
